Activity calls are given as the source filed them. The rule behind the calls is not given here.
Legend:
[1] = Cytotoxicity against human Huh-7 cells assessed as reduction in cell viability incubated for 48 hrs by MTS assay; type: toxicity, cell-based
Human coronavirus 229E [2] = test: Antiviral activity against Human coronavirus 229E expressing luciferase reporter gene infected in Huh-7 cells assessed as reduction in viral replication incubated for 24 hrs by renilla luciferase based luminometer assay; type: functional, organism-based; conditions: for IC50: Huh-7, 24 h
[3] = Selectivity index, ratio of CC50 for cytotoxicity against human Huh-7 cells to IC50 for antiviral activity against Human coronavirus 229E expressing luciferase reporter gene infected in Huh-7 cells; type: toxicity, cell-based; conditions: read-out: Ratio CC50/IC50
[4] = Cytotoxicity against African green monkey Vero E6 cells assessed as reduction in cell viability incubated for 48 hrs by MTS assay; type: toxicity, cell-based, Vero C1008; conditions: chlorocebus sabaeus
SARS-CoV-2 = test: Antiviral activity against SARS-CoV-2 infected in African green monkey Vero E6 cells assessed as reduction in viral replication incubated for 48 hrs by Alexa Fluor 488 staining based flow cytometric analysis; type: functional, organism-based, Severe acute respiratory syndrome coronavirus 2
Zika virus [5] = test: Antiviral activity against ZIKV expressing GFP infected in African green monkey Vero E6 cells assessed as reduction in viral replication incubated for 24 hrs by flow cytometric analysis; type: functional, organism-based
[6] = Selectivity index, ratio of CC50 for cytotoxicity against African green monkey Vero E6 cells to IC50 for antiviral activity against ZIKV expressing GFP infected in African green monkey Vero E6 cells; type: toxicity, cell-based; conditions: read-out: Ratio CC50/IC50
Huh-7 = test: Cytotoxicity against human Huh-7 cells assessed as reduction in cell viability at 3 to 400 uM incubated for 48 hrs by MTS assay; type: toxicity, cell-based; conditions: huh-7, 48 h, dose 3-400 µM
[7] = Cytotoxicity against human Huh-7 cells assessed as maximum non-toxic concentration at incubated for 48 hrs by MTS assay; type: toxicity, cell-based; conditions: read-out: MNTD>90
Zika virus [8] = test: Antiviral activity against ZIKV expressing GFP infected in African green monkey Vero E6 cells assessed as reduction in viral replication preincubated for 2 hrs followed by dilution to sub-therapeutic level and measured after 24 hrs by flow cytometric analysis; type: functional, organism-based; conditions: time 26.0 hrs
Zika virus [9] = test: Antiviral activity against ZIKV expressing GFP infected in African green monkey Vero E6 cells assessed as reduction in viral replication preincubated for 2 hrs followed by compound wash out and measured after 22 hrs by flow cytometric analysis; type: functional, organism-based; conditions: time 24.0 hrs
Zika virus [10] = test: Antiviral activity against ZIKV expressing GFP infected in African green monkey Vero E6 cells assessed as reduction in viral replication preincubated for 2 hrs without compound followed by compound addition and measured after 22 hrs by flow cytometric analysis; type: functional, organism-based
[11] = Selectivity index, ratio of CC50 for cytotoxicity against African green monkey Vero E6 cells to IC50 for antiviral activity against SARS-CoV-2 infected in African green monkey Vero E6 cells; type: toxicity, cell-based; conditions: read-out: Ratio CC50/IC50
Human coronavirus 229E [12] = test: Antiviral activity against Human coronavirus 229E expressing luciferase reporter gene infected in Huh-7 cells assessed as reduction in viral replication at 6 uM incubated for 24 hrs by renilla luciferase based luminometer assay relative to control; type: functional; parameters: scale not given: the % may be the effect or the level left
Zika virus [13] = test: Antiviral activity against ZIKV expressing GFP infected in African green monkey Vero E6 cells assessed as reduction in viral replication at 20 uM incubated for 24 hrs by flow cytometric analysis relative to control; type: functional; parameters: scale not given: the % may be the effect or the level left
[14] = Zika virus, Vero C1008, 24 h, read-out: IC50
[15] = Severe acute respiratory syndrome coronavirus 2, Vero C1008, 48 h, read-out: IC50

| Compound | CC50 at 48 h [1] [µM] | IC50 (Human coronavirus 229E [2]) [µM] | selectivity ratio [3] | CC50 at 48 h [4] [µM] | IC50 (SARS-CoV-2; vero e6) | IC50 (Zika virus [5]; [14]) [µM] | selectivity ratio [6] | Activity (Huh-7) | MNTC at 48 h [7] [µM] | Activity (Zika virus [8]) | Activity (Zika virus [9]) | Activity (Zika virus [10]) | IC50 (Zika virus [5]; vero e6) | IC50 (SARS-CoV-2; [15]) [µM] | selectivity ratio [11] | Activity (Human coronavirus 229E [2]) | Activity (Human coronavirus 229E [12]) [%] | Activity (Zika virus [13]) [%] |
| --- | --- | --- | --- | --- | --- | --- | --- | --- | --- | --- | --- | --- | --- | --- | --- | --- | --- | --- |
| CC1(C)CCC[C@@]2(C)[C@H]1CC[C@@]1(CO)O[C@H](C3=CC(=O)OC3O)C[C@@H]12 (stereo not given in full) | 46.9 | 15.8 | 3 | 88.3 | Not Active | 31.9 | 2.8 | Toxic | 6 | inactive | Active | Active |  |  |  |  |  |  |
| CC1(C)CCC[C@@]2(C)[C@H]1CC[C@]1(O)COC(O)([C@@H](O)CC(=O)O)C[C@@H]12 (stereo not given in full) | 223 | > 100 |  | > 200 | Not Active |  |  | Toxic |  |  |  |  | Not Active |  |  |  |  |  |
| CCC(CC)COC(=O)[C@H](C)N[P@](=O)(OC[C@H]1O[C@@](C#N)(c2ccc3c(N)ncnn23)[C@H](O)[C@@H]1O)Oc1ccccc1 [REMDESIVIR] | 90 | 0.04 | 2250 | > 100 |  |  |  |  |  |  |  |  |  | 25 | 4 |  |  |  |
| CC1(C)CCC[C@@]2(C)[C@H]1CC[C@]13COC4(CC(=O)O[C@H]4O)[C@H](C[C@@H]12)O3 (stereo not given in full) | 435 | > 100 |  | > 200 | Not Active |  |  | Non-Toxic |  |  |  |  | Not Active |  |  |  |  |  |
| CC1(C)CCC[C@@]2(C)[C@H]1CC[C@]1(CO)O[C@H](C3=CC(=O)OC3O)C[C@@H]12 (stereo not given in full) | 172 | 25.3 | 6.8 | 200 |  | 76 | 2.6 | Toxic |  | inactive | Active | Active |  | 6.3 | 3.2 |  |  |  |
| CC(=O)OC[C@@]12CC[C@H]3C(C)(C)CCC[C@]3(C)[C@H]1C[C@@H](C1=CC(=O)OC1O)O2 (stereo not given in full) | 14 | 2.3 | 6.2 | 55.9 | Not Active | 14.9 | 3.8 | Toxic | 30 | inactive | Active | Active |  |  |  | Dose-Dependent Effect | 80 | >90 |
| CC1(C)CCC[C@@]2(C)[C@H]1CC[C@]13CO[C@@H]4OC(=O)C=C4[C@H](C[C@@H]12)O3 | 215 | 58.8 | 3.7 | > 200 |  |  |  | Toxic |  |  |  |  | Not Active | 93.5 | 2.1 |  |  |  |
